From patent publication US20230348415A1, “BISPECIFIC ANTAGONISTS OF RETINOL-BINDING PROTEIN 4 THAT STABILIZE TRANSTHYRETIN TETRAMERS, THEIR PREPARATION, AND USE IN THE TREATMENT OF COMMON AGE-RELATED COMORBIDITIES” (The Trustees of Columbia University in the City of New York, priority 2020, published 2023)
“Also recorded” adds a separate entry of the source.

Experiments:
RBP4-TTR interaction = RBP4-TTR interaction (Homo sapiens (Human), UniProt P02753); assay: HTRF RBP4-TTR interaction assay; assay type: biochemical; conditions: 1 μM retinol; read-out: RBP4-TTR HTRF IC50
Protocol: HTRF Cryptate labeling kit from CisBio (Cisbio, cat #62EUSPEA, Bedfored, MA) was used to label TTR with Eu^3+ Cryptate. The assay was performed in a final assay volume of 16 μl in the buffer that contained 10 mM Tris-HCl pH 7.5, 1 mM DTT, 0.05% NP-40, 0.05% Prionex, 6% glycerol, and 400 mM KF. […] All of the reactions were performed under dim red light in the dark. The plates were read in the SpectraMax M5e Multimode Plate Reader (Molecular Devices, Sunnyvale, CA) after the overnight incubation at 4° C. […] The HTRF signal was expressed as the ratio of fluorescence intensity: Flu668/Flu620×10,000.

TTR = TTR (Homo sapiens (Human), UniProt P02766); assay: biochemical; assay type: binding; conditions: FITC-coupled TTR FP probe; read-out: TTR FP IC50
Protocol: Compound binding to TTR was assessed in the fluorescence polarization assay. […] Each well contained 200 nM TTR and 100 nM FITC-diclofenac in the FP buffer (10 mM Tris-HCl pH 7.5, 150 mM NaCl, 0.01% CHAPS, 0.01% Prionex) along with test compounds. Nonspecific binding was determined in the presence of 500 μM unlabeled diclofenac (Sigma-Aldrich). Reactions with test compounds were incubated overnight at 4° C. and FP was measured on SpectramaxM5e plate reader (Molecular Devices).

Abca4−/−/Rdh8−/− mice [1] = assay: A2E accumulation in eyes of Abca4−/−/Rdh8−/− mice; assay type: in vivo, mouse; conditions: 25 mg/kg daily in chow, 10 weeks, eyecups, HPLC
From the text: FIG. 10. Effect of the long-term oral (±)-44 administration on the level of the lipofuscin fluorophore A2E in eyes of the Abca4^−/−/Rdh8^−/− mice. Bisretinoids were extracted from the eyecups of vehicle-treated wild type mice (circles), vehicle-treated Abca4^−/−/Rdh8^−/− knockout mice (squares), and (±)-44-treated Abca4^−/−/Rdh8^−/− mice (triangles) after 10 weeks of dosing and analyzed by HPLC. A significant 77% reduction in A2E concentration was detected in (±)-44-treated Abca4^−/−/Rdh8^−/− mice compared with vehicle-treated double-knockout controls; one-way ANOVA with Holm-Sidak post hoc test, p<0.0001 (****).
(±)-44 was formulated into a Picolab 5053 chow to ensure a daily dosing of 25 mg/kg of (±)-44. Long-term 10-week dosing of the compound formulated into a chow was conducted in Abca4^−/−/Rdh8^−/− mice. The age-matched control group of wild-type C57BL/6J mice was kept on a standard Picolab 5053 chow. The age-matched reference group of mice was used for defining the basal level of A2E in mice in the absence of the Abca4 and Rdh8 ablation. […] Following the 10 weeks of dosing, the eyecups of treated and untreated Abca4^−/−/Rdh8^−/− mice as well as the eyecups of the reference wild type mice were collected for the quantitative A2E analysis.

[2] = Plasma protein binding, mouse plasma; assay type: in vitro ADME; conditions: CD-1, pH 7.4, read-out: % PPB (converted)
Protocol: (§1) Plasma protein binding (PPB) for compounds determination for compound (±)-44 in PBS (pH 7.4) was conducted by Eurofins using equilibrium dialysis of plasma with HPLC-UV/Vis detection.
(§2) The peak areas of the test compound in the buffer and test samples were used to calculate percent binding and recovery according to the following formulas:
(§3) • Areap=Peak area of analyte in protein matrix • Areab=Peak area of analyte in buffer • Areac=Peak area of analyte in control sample

[3] = Metabolic stability and clearance in rat liver microsomes; assay type: in vitro ADME; conditions: 30 minute incubation
Protocol: The results of metabolic stability determinations for novel compounds and testosterone (positive control) were conducted in the presence of human, rat, mouse, and monkey liver microsomes. Values shown are percent of parent remaining after a 30 minute incubation. All measurements were done in duplicate. Assay results for testosterone were within an acceptable range.
Mixed-gender human liver microsomes (Lot #1710084), male Sprague-Dawley rat liver microsomes (Lot #1610290), male CD-1 mouse liver microsomes (Lot #1710069), and male Cynomolgous liver microsomes (Lot #1510193) were purchased from XenoTech. The reaction mixture, minus NADPH, was prepared as described below. The test article was added into the reaction mixture at a final concentration of 1 μM. The control compound, testosterone, was run simultaneously with the test article in a separate reaction. An aliquot of the reaction mixture (without cofactor) was equilibrated in a shaking water bath at 37° C. for 3 minutes. The reaction was initiated by the addition of cofactor, and the mixture was incubated in a shaking water bath at 37° C. Aliquots (100 μL) were withdrawn at 0, 10, 20, 30, and 60. […] Half-lives were calculated using GraphPad software, fitting to a single-phase exponential decay equation.

Abca4−/−/Rdh8−/− mice [4] = assay: Photoreceptor preservation (ONL thickness) in Abca4−/−/Rdh8−/− mice; assay type: in vivo, mouse; conditions: 25 mg/kg daily in chow, 10 weeks
Protocol: FIG. 11. Photoreceptor protection in (±)-44-treated Rdh8^−/−Abca4^−/− mice. […] Data analyzed by two-way ANOVA with Sidak post hoc test.
(±)-44 was formulated into a Picolab 5053 chow to ensure a daily dosing of 25 mg/kg of (±)-44. Long-term 10-week dosing of the compound formulated into a chow was conducted in Abca4^−/−/Rdh8-mice. The age-matched control group of wild-type C57BL/6J mice was kept on a standard Picolab 5053 chow. After 10 weeks of dosing, whole eyes were collected and fixed in the 2% glutaraldehyde/4% paraformaldehyde. Eyes were embedded in paraffin and sectioned at a thickness of 8 μm. Sections were counterstained using hematoxylin and eosin (H&E). Morphologic observations and light microscopy was performed.

RBP4 = RBP4 (Homo sapiens (Human), UniProt P02753); assay: RBP4 SPA binding assay (displacement of 3H-retinol); conditions: read-out: RBP4 SPA IC50
[5] = Plasma protein binding, rat plasma; assay type: in vitro ADME; conditions: Sprague Dawley, pH 7.4, read-out: % PPB, R (converted)
Protocol: as §1, §2, §3

Compound: Cc1cc(C(=O)O)nc(N2CCC(COc3ccccc3C(F)(F)F)C2)n1 (racemic) [Compound (±)-44, (±)-6-Methyl-2-(3-((2-(trifluoromethyl)phenoxy)methyl)pyrrolidin-1-yl)pyrimidine-4-carboxylic Acid]
- IC50 (RBP4-TTR interaction): 0.25 µM
- IC50 (TTR): 2.85 µM
- reduction in A2E concentration vs vehicle-treated Abca4−/−/Rdh8−/− mice (Abca4−/−/Rdh8−/− mice [1]): 77%
- fraction unbound [2]: 0.04
- Liver Microsomal Stability (% remaining at 30 min), RLM [3]: 93%
- photoreceptor protection (ONL thickness) (Abca4−/−/Rdh8−/− mice [4]): partially reversed; also recorded: Photoreceptor protection is evident at multiple points in the superior retina
- IC50 (RBP4): 0.08 µM
- fraction unbound [5]: 0.04
